This is an account of results in ChEMBL document CHEMBL1146863, “1,4-Dihydroindeno[1,2-c]pyrazoles as novel multitargeted receptor tyrosine kinase inhibitors” (Bioorg Med Chem Lett, 2006).

The structures appear in SMILES notation.

One test deals with Cytochrome P450 3A4 (Homo sapiens, UniProt P08684). Nature of the test: Inhibition of CYP3A4 in human liver microsome. It counts as ADME. A general note: Microsomes from liver hold many membrane-bound enzymes, among them those of drug oxidation.
Test [1] concerns the target Mast/stem cell growth factor receptor Kit (Homo sapiens, UniProt P10721).
The target of test [2] is Vascular endothelial growth factor receptor 1 (Homo sapiens, UniProt P17948).
In test [3] the target is Vascular endothelial growth factor receptor 2 (Homo sapiens, UniProt P35968).
The target in another test is Angiopoietin-1 receptor (Homo sapiens, UniProt Q02763). Nature of the test: Inhibition of Tie2 at 1 mM ATP by HTRF assay.

Chain of Vascular endothelial growth factor receptor 1 (P17948 whole entry): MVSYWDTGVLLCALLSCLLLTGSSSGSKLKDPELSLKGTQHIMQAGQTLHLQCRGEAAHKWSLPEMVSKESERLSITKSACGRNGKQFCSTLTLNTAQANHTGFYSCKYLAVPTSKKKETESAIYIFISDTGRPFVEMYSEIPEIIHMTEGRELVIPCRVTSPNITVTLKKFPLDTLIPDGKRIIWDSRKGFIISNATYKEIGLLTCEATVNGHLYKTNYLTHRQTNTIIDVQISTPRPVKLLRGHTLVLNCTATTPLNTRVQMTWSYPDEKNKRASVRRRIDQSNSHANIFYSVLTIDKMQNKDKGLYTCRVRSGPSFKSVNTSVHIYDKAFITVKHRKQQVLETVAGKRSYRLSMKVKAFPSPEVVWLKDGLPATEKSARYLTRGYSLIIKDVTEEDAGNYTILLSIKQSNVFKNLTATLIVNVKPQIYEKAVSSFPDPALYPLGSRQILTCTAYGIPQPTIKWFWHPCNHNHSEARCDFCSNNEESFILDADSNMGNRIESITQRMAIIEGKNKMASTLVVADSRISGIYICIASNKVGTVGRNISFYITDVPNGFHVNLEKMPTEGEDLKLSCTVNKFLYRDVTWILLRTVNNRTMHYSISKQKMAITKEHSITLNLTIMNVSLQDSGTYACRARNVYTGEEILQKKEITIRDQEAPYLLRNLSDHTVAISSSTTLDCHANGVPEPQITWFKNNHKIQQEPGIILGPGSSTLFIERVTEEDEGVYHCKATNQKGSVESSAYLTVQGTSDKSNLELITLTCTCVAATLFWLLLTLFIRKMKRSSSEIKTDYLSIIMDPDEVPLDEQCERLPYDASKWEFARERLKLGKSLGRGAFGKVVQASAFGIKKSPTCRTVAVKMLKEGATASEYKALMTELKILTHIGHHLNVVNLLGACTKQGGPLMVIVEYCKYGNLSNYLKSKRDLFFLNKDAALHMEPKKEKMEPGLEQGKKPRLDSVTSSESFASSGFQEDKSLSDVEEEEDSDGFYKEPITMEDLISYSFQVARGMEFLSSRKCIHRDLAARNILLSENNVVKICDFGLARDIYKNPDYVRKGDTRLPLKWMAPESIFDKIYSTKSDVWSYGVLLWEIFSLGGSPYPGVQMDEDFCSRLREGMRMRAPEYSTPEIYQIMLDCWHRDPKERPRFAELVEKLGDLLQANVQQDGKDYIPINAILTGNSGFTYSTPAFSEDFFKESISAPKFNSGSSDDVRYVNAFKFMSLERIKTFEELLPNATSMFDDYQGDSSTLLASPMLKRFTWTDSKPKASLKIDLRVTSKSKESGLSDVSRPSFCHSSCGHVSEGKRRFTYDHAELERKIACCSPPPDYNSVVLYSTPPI
Chain of Mast/stem cell growth factor receptor Kit (P10721 whole entry): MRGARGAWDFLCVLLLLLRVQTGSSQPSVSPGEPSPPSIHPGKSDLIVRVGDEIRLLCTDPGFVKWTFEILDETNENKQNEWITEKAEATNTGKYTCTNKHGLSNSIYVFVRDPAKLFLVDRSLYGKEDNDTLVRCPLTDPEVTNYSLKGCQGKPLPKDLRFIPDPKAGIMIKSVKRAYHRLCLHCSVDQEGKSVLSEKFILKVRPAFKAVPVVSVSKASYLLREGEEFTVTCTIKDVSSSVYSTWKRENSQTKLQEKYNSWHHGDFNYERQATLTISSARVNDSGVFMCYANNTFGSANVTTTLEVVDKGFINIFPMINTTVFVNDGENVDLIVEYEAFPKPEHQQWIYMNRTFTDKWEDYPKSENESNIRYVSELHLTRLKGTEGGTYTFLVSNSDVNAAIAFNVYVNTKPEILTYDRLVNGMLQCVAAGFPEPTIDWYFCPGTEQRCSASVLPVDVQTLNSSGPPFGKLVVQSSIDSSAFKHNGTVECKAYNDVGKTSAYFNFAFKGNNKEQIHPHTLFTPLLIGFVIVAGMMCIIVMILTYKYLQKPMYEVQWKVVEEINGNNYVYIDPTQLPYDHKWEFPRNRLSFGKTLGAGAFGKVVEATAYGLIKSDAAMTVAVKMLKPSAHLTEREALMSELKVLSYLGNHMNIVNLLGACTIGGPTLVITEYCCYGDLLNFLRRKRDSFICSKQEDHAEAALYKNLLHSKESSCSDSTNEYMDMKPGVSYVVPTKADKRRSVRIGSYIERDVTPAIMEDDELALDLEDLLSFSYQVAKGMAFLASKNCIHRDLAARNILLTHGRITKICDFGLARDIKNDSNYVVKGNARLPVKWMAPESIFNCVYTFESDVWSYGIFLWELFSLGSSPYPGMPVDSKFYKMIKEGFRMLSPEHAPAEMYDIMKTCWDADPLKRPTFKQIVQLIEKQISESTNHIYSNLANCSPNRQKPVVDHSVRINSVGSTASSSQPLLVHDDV
Chain of Vascular endothelial growth factor receptor 2 (P35968 whole entry): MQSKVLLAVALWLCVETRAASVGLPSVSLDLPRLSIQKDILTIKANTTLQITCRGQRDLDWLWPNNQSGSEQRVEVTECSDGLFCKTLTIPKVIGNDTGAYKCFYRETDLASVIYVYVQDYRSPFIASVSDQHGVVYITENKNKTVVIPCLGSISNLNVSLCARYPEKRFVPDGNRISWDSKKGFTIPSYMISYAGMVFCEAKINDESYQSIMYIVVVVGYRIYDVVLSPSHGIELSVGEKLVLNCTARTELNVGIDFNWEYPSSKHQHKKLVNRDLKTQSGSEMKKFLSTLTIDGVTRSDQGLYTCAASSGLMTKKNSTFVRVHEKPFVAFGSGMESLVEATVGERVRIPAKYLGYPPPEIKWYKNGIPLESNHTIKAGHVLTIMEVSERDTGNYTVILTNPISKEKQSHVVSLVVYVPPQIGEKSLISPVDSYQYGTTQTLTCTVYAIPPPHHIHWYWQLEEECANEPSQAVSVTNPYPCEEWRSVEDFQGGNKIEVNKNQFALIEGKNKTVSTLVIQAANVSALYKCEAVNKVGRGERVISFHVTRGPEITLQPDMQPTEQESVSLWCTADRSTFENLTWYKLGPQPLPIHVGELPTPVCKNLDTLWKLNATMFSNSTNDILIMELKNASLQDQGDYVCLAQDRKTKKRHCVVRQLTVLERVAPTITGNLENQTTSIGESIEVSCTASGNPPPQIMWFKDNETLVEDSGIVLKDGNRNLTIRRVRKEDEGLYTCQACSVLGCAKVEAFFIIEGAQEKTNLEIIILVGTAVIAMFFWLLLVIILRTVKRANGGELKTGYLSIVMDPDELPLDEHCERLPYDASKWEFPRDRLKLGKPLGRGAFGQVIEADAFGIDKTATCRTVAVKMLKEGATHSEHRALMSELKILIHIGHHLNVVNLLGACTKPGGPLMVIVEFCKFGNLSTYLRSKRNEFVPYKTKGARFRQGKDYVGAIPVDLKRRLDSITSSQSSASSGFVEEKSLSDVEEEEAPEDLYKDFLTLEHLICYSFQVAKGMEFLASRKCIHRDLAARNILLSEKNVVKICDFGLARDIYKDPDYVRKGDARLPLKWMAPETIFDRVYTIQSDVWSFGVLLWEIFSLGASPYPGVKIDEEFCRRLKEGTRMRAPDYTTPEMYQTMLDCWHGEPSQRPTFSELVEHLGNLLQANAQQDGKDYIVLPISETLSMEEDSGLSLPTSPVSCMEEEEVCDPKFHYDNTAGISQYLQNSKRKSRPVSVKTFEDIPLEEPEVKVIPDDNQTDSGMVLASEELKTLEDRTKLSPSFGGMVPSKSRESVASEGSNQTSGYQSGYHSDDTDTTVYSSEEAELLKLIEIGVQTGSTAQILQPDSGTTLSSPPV
Chain of Cytochrome P450 3A4 (P08684 whole entry): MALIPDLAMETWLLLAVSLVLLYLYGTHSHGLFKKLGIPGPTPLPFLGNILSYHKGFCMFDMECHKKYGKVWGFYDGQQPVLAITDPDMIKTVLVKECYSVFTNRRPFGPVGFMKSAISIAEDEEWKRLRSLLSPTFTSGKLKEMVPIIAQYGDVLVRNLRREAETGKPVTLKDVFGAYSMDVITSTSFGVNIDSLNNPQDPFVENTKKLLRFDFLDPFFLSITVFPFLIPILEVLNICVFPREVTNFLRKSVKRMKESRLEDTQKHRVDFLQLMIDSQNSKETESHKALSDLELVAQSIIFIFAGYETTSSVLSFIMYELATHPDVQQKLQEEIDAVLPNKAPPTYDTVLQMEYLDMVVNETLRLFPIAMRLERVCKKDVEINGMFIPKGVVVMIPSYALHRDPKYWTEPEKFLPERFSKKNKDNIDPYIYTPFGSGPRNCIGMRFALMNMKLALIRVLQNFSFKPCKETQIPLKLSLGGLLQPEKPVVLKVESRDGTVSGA

Broadly, the IC50 is the concentration needed to halve the response being measured. Lower therefore signals higher potency. Take `CN1CCN(Cc2ccc3c(c2)-c2[nH]nc(-c4ccsc4)c2C3)CC1`: on Cytochrome P450 3A4, the IC50 was > 10000 nM.

For the molecule `CN1CCN(Cc2ccc3c(c2)-c2n[nH]c(-c4ccc(CN(C)C(=O)Nc5ccc(F)cc5)s4)c2C3)CC1`, the IC50 in test [1] came to 59 nM; in test [2], 83 nM.

In the case of `CN1CCN(Cc2ccc3c(c2)-c2n[nH]c(-c4ccc(CN(C)C(=O)Nc5cccc(Cl)c5)s4)c2C3)CC1`, the IC50 in test [1] was 38 nM; in test [2], 20 nM.

Consider `Cc1cccc(NC(=O)N(Cc2ccc(-c3[nH]nc4c3Cc3cc(CN5CCN(C)CC5)ccc3-4)s2)C2CC2)c1`, for which the IC50 in test [1] stood at 136 nM; in test [2], 38 nM.

In the case of `Cc1cccc(NC(=O)N(C)Cc2ccc(-c3n[nH]c4c3Cc3ccc(CN5CCN(C)CC5)cc3-4)s2)c1`, the IC50 in test [1] stood at 96 nM; in test [2] it was 44 nM.

In the case of `CN1CCN(Cc2ccc3c(c2)Cc2c(-c4ccc(CNC(=O)Nc5cc(Cl)cc(Cl)c5)s4)n[nH]c2-3)CC1`, the values for the IC50 in test [1] and in test [2] were 38 nM and 2280 nM, respectively.

For the molecule `CN1CCN(Cc2ccc3c(c2)Cc2c-3n[nH]c2-c2csc(CNS(=O)(=O)Cc3ccccc3)c2)CC1`, the IC50 in test [3] was > 50000 nM.

Consider `CN1CCN(Cc2ccc3c(c2)Cc2c-3n[nH]c2-c2ccc(CN(C)C(=O)Nc3ccccc3Cl)s2)CC1`, for which the half-maximal inhibitory concentration (IC50) was > 50000 nM in test [1] and 3840 nM in test [2].

`CN1CCN(Cc2ccc3c(c2)Cc2c-3n[nH]c2-c2ccc(CN(C)C(=O)Nc3cccc(OC(F)(F)F)c3)s2)CC1`: the figures for the IC50 in test [1] and in test [2] were 56 nM and 19 nM, respectively.

In the case of `CCCN(Cc1ccc(-c2[nH]nc3c2Cc2cc(CN4CCN(C)CC4)ccc2-3)s1)C(=O)Nc1cccc(C)c1`, the IC50 stood at 75 nM in test [1] and 59 nM in test [2].

With `Cc1cccc(NC(=O)NCc2ccc(-c3n[nH]c4c3Cc3ccc(CN5CCN(C)CC5)cc3-4)s2)c1`, the IC50 in test [1] was 69 nM; in test [2] it was 592 nM.

`COCCN(Cc1ccc(-c2[nH]nc3c2Cc2cc(CN4CCN(C)CC4)ccc2-3)s1)C(=O)Nc1cccc(C)c1`: the figures for the IC50 in test [1] and in test [2] were > 50000 nM and 2260 nM, respectively.

As to `Cc1cccc(NC(=O)N(CCC(C)C)Cc2ccc(-c3[nH]nc4c3Cc3cc(CN5CCN(C)CC5)ccc3-4)s2)c1`, the IC50 was determined as 4840 nM in test [1] and 3620 nM in test [2].

Take `c1cn(Cc2ccc3c(c2)-c2[nH]nc(-c4ccsc4)c2C3)cn1`: the IC50 came out at 147 nM in test [3] and 254 nM against Cytochrome P450 3A4.

Turning to `Cc1cccc(NC(=O)N(Cc2ccc(-c3[nH]nc4c3Cc3cc(CN5CCN(C)CC5)ccc3-4)s2)C(C)C)c1`, the values for the IC50 in test [1] and in test [2] were 9750 nM and 2820 nM, respectively.

On to `Cc1ccccc1NC(=O)NCc1ccc(-c2[nH]nc3c2Cc2cc(CN4CCN(C)CC4)ccc2-3)s1`, for which the values for the IC50 in test [1] and in test [2] were 1390 nM and 25000 nM, respectively.

For the molecule `Cc1cccc(N(C)C(=O)NCc2ccc(-c3[nH]nc4c3Cc3cc(CN5CCN(C)CC5)ccc3-4)s2)c1`, the IC50 was found to be 139 nM in test [1] and 14600 nM in test [2].

Consider `CN1CCN(Cc2ccc3c(c2)Cc2c-3n[nH]c2-c2ccc(CN(C)C(=O)Nc3cc(F)cc(C(F)(F)F)c3)s2)CC1`, for which the IC50 in test [1] was 25 nM; in test [2], 33 nM.

For the molecule `CN1CCN(Cc2ccc3c(c2)-c2n[nH]c(-c4ccc(CN(C)C(=O)Nc5ccc(Cl)c(Cl)c5)s4)c2C3)CC1`, the IC50 turned out to be 28 nM in test [1] and 36 nM in test [2].

Turning to `CN1CCN(Cc2ccc3c(c2)-c2n[nH]c(-c4ccc(CN(C)C(=O)Nc5ccc(Cl)cc5)s4)c2C3)CC1`, the IC50 in test [1] worked out at 36 nM; in test [2], 64 nM.

Regarding `Cc1cccc(N(C)C(=O)N(C)Cc2ccc(-c3[nH]nc4c3Cc3cc(CN5CCN(C)CC5)ccc3-4)s2)c1`, the values for the IC50 in test [1] and in test [2] were 26800 nM and 27900 nM, respectively.

`CN1CCN(Cc2ccc3c(c2)Cc2c-3n[nH]c2-c2ccc(CNC(=O)Nc3cccc(C(F)(F)F)c3)s2)CC1`: the IC50 in test [1] is 17 nM; in test [2], 863 nM.

For `CON(Cc1ccc(-c2[nH]nc3c2Cc2cc(CN4CCN(C)CC4)ccc2-3)s1)C(=O)Nc1cccc(C)c1`, the IC50 came to 237 nM in test [1] and 1350 nM in test [2].

Regarding `Cc1ccc(NC(=O)NCc2ccc(-c3[nH]nc4c3Cc3cc(CN5CCN(C)CC5)ccc3-4)s2)cc1`, the IC50 in test [1] was 24 nM; in test [2], 11500 nM.

Consider `Cc1ccc(NC(=O)NCc2ccc(-c3n[nH]c4c3Cc3ccc(CN5CCN(C)CC5)cc3-4)s2)cc1`, for which the concentration for half-maximal inhibition (IC50) in test [1] was 27 nM; in test [2], 613 nM.

In the case of `CN1CCN(Cc2ccc3c(c2)Cc2c(-c4ccc(CNC(=O)Nc5ccccc5Cl)s4)n[nH]c2-3)CC1`, the IC50 in test [1] is 921 nM.

As to `Cc1cccc(NC(=O)N(C)Cc2ccc(-c3[nH]nc4c3Cc3cc(CN5CCN(C)CC5)ccc3-4)s2)c1`, the IC50 in test [1] amounted to 14700 nM; in test [2] it was 4720 nM.

Regarding `CN1CCN(Cc2ccc3c(c2)-c2[nH]nc(-c4ccc(CNC(=O)Nc5ccccc5)s4)c2C3)CC1`, the IC50 in test [1] stood at 101 nM; in test [2] it was 3780 nM.

Turning to `Cc1ccc2nc(NCc3ccc(-c4[nH]nc5c4Cc4cc(CN6CCN(C)CC6)ccc4-5)s3)[nH]c2c1`, the IC50 in test [3] is > 50000 nM.

As for `CN1CCN(Cc2ccc3c(c2)-c2n[nH]c(-c4ccc(CN(C)C(=O)Nc5ccc(Br)cc5)s4)c2C3)CC1`, the figures for the IC50 in test [1] and in test [2] were 17 nM and 38 nM, respectively.

Regarding `CCN(Cc1ccc(-c2[nH]nc3c2Cc2cc(CN4CCN(C)CC4)ccc2-3)s1)C(=O)Nc1cccc(C)c1`, the results for the 50% inhibitory concentration (IC50) in test [1] and in test [2] were 2190 nM and 131 nM, respectively.

As to `Cc1cccc(NC(=O)N(Cc2ccc(-c3[nH]nc4c3Cc3cc(CN5CCN(C)CC5)ccc3-4)s2)CC(C)C)c1`, the results for the IC50 in test [1] and in test [2] were 17200 nM and 1590 nM, respectively.

On to `CN1CCN(Cc2ccc3c(c2)-c2n[nH]c(-c4ccc(CN(C)C(=O)Nc5ccc(OC(F)(F)F)cc5)s4)c2C3)CC1`, for which the IC50 was 19 nM in test [1] and 25 nM in test [2].

For the molecule `Cc1cccc(NC(=O)NCc2ccc(-c3n[nH]c4c3Cc3cc(CN5CCN(C)CC5)ccc3-4)s2)c1`, the values for the IC50 in test [1] and in test [2] were 86 nM and 2900 nM, respectively.

On to `CN1CCN(Cc2ccc3c(c2)-c2n[nH]c(-c4ccc(CN(C)C(=O)Nc5cccc(C(F)(F)F)c5)s4)c2C3)CC1`, for which the values for the IC50 (in test [1]; in test [2]; on Angiopoietin-1 receptor) were 18 nM, 14 nM and 259 nM, respectively.

For the molecule `Cc1cccc(N/C(=N/Cc2ccc(-c3n[nH]c4c3Cc3cc(CN5CCN(C)CC5)ccc3-4)s2)NC#N)c1`, the IC50 in test [3] is > 50000 nM.

`Cc1cc(C)cc(NC(=O)NCc2ccc(-c3n[nH]c4c3Cc3cc(CN5CCN(C)CC5)ccc3-4)s2)c1`: the IC50 amounted to 27 nM in test [1] and 1670 nM in test [2].

For the molecule `CN1CCN(Cc2ccc3c(c2)Cc2c-3n[nH]c2-c2ccc(CNC(=O)Nc3ccccc3C(F)(F)F)s2)CC1`, the IC50 in test [1] was 23800 nM; in test [2], > 50000 nM.

In the case of `CN1CCN(Cc2ccc3c(c2)Cc2c(-c4ccc(CNC(=O)Nc5ccc(C(F)(F)F)cc5)s4)n[nH]c2-3)CC1`, the IC50 was found to be 13 nM in test [1] and 4200 nM in test [2].

Take `Cc1ccccc1NC(=O)NCc1ccc(-c2[nH]nc3c2Cc2ccc(CN4CCN(C)CC4)cc2-3)s1`: the IC50 in test [1] was 674 nM; in test [2], 2060 nM.
